Assay results: ChEMBL document CHEMBL1201862, “PubChem BioAssay data set” (2004)
Values joined by “and” are separate entries in the source; they are usually repeats but may differ in a detail not shown here. Identical values can stand only once.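 Method: 48-hour compound exposure of cells in 96-well plates, five concentrations, linear interpolation of endpoints. GI50 is the concentration that inhibits growth by half.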 Active and inactive are the calls of the source. Rule as the data show it: active = GI50 up to about 1.1 µM and inactive = higher.

Legend:
Test in all cases: growth of human tumour cells (NCI), 48 h
MDA-MB-435 = tested on: MDA-MB-435
HL-60 = tested on: HL-60
A498 = tested on: A498
EKVX = tested on: EKVX
MOLT-4 = tested on: MOLT-4
UO-31 = tested on: UO-31
SNB-19 = tested on: SNB-19
U-251 = tested on: U-251
SR = tested on: SR
TK-10 = tested on: TK-10
CCRF-CEM = tested on: CCRF-CEM
CAKI-1 = tested on: CAKI-1
DU-145 = tested on: DU-145
MDA-N = tested on: MDA-N
SK-OV-3 = tested on: SK-OV-3
NCI-H522 = tested on: NCI-H522
SNB-75 = tested on: SNB-75
KM12 = tested on: KM12
NCI/ADR-RES = tested on: NCI/ADR-RES
RXF 393 = tested on: RXF 393

SMILES	GI50 (MDA-MB-435)	GI50 (HL-60)	GI50 (A498)	GI50 (EKVX)	GI50 (MOLT-4)	GI50 (UO-31)	GI50 (SNB-19)	GI50 (U-251)	GI50 (SR)	GI50 (TK-10)	GI50 (CCRF-CEM)	GI50 (CAKI-1)	GI50 (DU-145)	GI50 (MDA-N)	GI50 (SK-OV-3)	GI50 (NCI-H522)	GI50 (SNB-75)	GI50 (KM12)	GI50 (NCI/ADR-RES)	GI50 (RXF 393)
COC(=O)Cc1c(-c2c(CC(=O)OC)c3ccccc3n2C2OC(COC3OC(COC(C)=O)C(OC(C)=O)C(OC(C)=O)C3OC(C)=O)C(O)C(O)C2O)[nH]c2ccccc12 (stereo not given)	> 100 µM (inactive)	> 100 µM (inactive)	57.8 µM (inactive)	> 100 µM (inactive)	> 100 µM (inactive)	> 100 µM (inactive)	22.8 µM (inactive)	44.3 µM (inactive)	> 100 µM (inactive)	71 µM (inactive)	> 100 µM (inactive)	> 100 µM (inactive)	> 100 µM (inactive)	> 100 µM (inactive)	74.8 µM (inactive)					
N#C[C@H](C(=O)c1ccccc1F)c1nc2ccccc2s1	39.8 µM (inactive)	31.3 µM (inactive)	33 µM (inactive)	28 µM (inactive)	26.5 µM (inactive)	46.8 µM (inactive)	27.5 µM (inactive)	33.3 µM (inactive)		> 100 µM (inactive)	23.4 µM (inactive)	32.5 µM (inactive)	42.6 µM (inactive)	38.3 µM (inactive)	21.1 µM (inactive)	15.5 µM (inactive)	14.8 µM (inactive)	11 µM (inactive)	26.9 µM (inactive)	27.7 µM (inactive)
C=C(C)C1CC[C@@](C)(O)[C@H](C#N)C1 (stereo not given in full)	> 100 µM (inactive)	> 100 µM (inactive)	> 100 µM (inactive)	> 100 µM (inactive)	> 100 µM (inactive)	> 100 µM (inactive)	> 100 µM (inactive)	> 100 µM (inactive)	> 100 µM (inactive)	> 100 µM (inactive)	> 100 µM (inactive)	> 100 µM (inactive)	> 100 µM (inactive)	> 100 µM (inactive)	> 100 µM (inactive)	> 100 µM (inactive)	44.5 µM (inactive)	> 100 µM (inactive)		> 100 µM (inactive)
CCOC(=O)C(C)(C(=O)OCC)/C(Cl)=C\Cl	> 100 µM (inactive)	> 100 µM (inactive)		> 100 µM (inactive)	> 100 µM (inactive)	> 100 µM (inactive)	> 100 µM (inactive)		> 100 µM (inactive)	> 100 µM (inactive)	> 100 µM (inactive)	> 100 µM (inactive)	> 100 µM (inactive)	> 100 µM (inactive)	> 100 µM (inactive)	> 100 µM (inactive)	66.1 µM (inactive)	> 100 µM (inactive)	> 100 µM (inactive)	> 100 µM (inactive)
CSc1nc(C)c(CCCl)c(Cl)n1	34.1 µM (inactive)		> 100 µM (inactive)	> 100 µM (inactive)	27.4 µM (inactive)	> 100 µM (inactive)	> 100 µM (inactive)	> 100 µM (inactive)		> 100 µM (inactive)	20.8 µM (inactive)	> 100 µM (inactive)	> 100 µM (inactive)	49.8 µM (inactive)	> 100 µM (inactive)	20.6 µM (inactive)	> 100 µM (inactive)		> 100 µM (inactive)	> 100 µM (inactive)
Cc1n[nH]c(=O)n1Nc1ccccc1	> 100 µM (inactive)	> 100 µM (inactive)		> 100 µM (inactive)	> 100 µM (inactive)	> 100 µM (inactive)	> 100 µM (inactive)	> 100 µM (inactive)	> 100 µM (inactive)		> 100 µM (inactive)	> 100 µM (inactive)	> 100 µM (inactive)	> 100 µM (inactive)	> 100 µM (inactive)	> 100 µM (inactive)	> 100 µM (inactive)	> 100 µM (inactive)	> 100 µM (inactive)	
COc1ccc2c(c1)CCc1[nH]c3ccccc3c1CCCC2	> 10 µM (inactive)	> 10 µM (inactive)			> 10 µM (inactive)		> 10 µM (inactive)	> 10 µM (inactive)	> 10 µM (inactive)	> 10 µM (inactive)	> 10 µM (inactive)	> 10 µM (inactive)	> 10 µM (inactive)	> 10 µM (inactive)	> 10 µM (inactive)	> 10 µM (inactive)	> 10 µM (inactive)	> 10 µM (inactive)	> 10 µM (inactive)	
O=C1/C(=C/c2ccc(O)c(CN3CCCCC3)c2)CCC/C1=C\c1ccc(O)c(CN2CCCCC2)c1	4.66 µM (inactive)	3.48 µM (inactive)	12.8 µM (inactive)	8.85 µM (inactive)	4 µM (inactive)	10.4 µM (inactive)	5.04 µM (inactive)	5.22 µM (inactive)		6.17 µM (inactive)	3.32 µM (inactive)	18.8 µM (inactive)	4.4 µM (inactive)	4.66 µM (inactive)	8.53 µM (inactive)		2.27 µM (inactive)	4.12 µM (inactive)	2.89 µM (inactive)	3.24 µM (inactive)
COc1ccc(-c2nc(O)c3ccccc3n2)c(OC)c1	> 100 µM (inactive)		> 100 µM (inactive)	> 100 µM (inactive)	> 100 µM (inactive)	> 100 µM (inactive)	> 100 µM (inactive)	> 100 µM (inactive)			> 100 µM (inactive)	> 100 µM (inactive)	> 100 µM (inactive)	> 100 µM (inactive)	> 100 µM (inactive)		> 100 µM (inactive)	> 100 µM (inactive)	> 100 µM (inactive)	> 100 µM (inactive)
COc1ccc(OC)c(/C=C/[N+](=O)[O-])c1	2.37 µM (inactive)		3.92 µM (inactive) and 3.94 µM (inactive)			1.74 µM (inactive) and 2.77 µM (inactive)	3.44 µM (inactive) and 4.23 µM (inactive)	2.56 µM (inactive) and 3.76 µM (inactive)			1.01 µM (active) and 1.58 µM (inactive)	2.85 µM (inactive) and 2.45 µM (inactive)	3.33 µM (inactive) and 3.03 µM (inactive)	3.16 µM (inactive)	5.53 µM (inactive) and 4.7 µM (inactive)	1.63 µM (inactive) and 1.16 µM (inactive)	6.64 µM (inactive) and 4.62 µM (inactive)		2.96 µM (inactive)	1.12 µM (inactive) and 2.05 µM (inactive)
CCOc1cc2c(cc1O)/C(=N\O)C[C@@H]1[C@@H]2CC[C@]2(C)[C@@H](O)CC[C@@H]12	0.011 µM (active)	< 0.0155 µM (active)	< 0.0272 µM (active)	55.2 µM (inactive)	< 0.023 µM (active)	0.147 µM (active)	< 0.01 µM (active)	0.018 µM (active)		29.6 µM (inactive)		< 0.0235 µM (active)	< 0.0197 µM (active)	0.0123 µM (active)	0.0374 µM (active)	< 0.0182 µM (active)	< 0.01 µM (active)	0.168 µM (active)	< 0.0276 µM (active)	
CC12CC3OC(=O)C1COC14OC5(C2C1=O)C(O)(CCC1C4CC(O)C2(O)CC=CC(=O)C12C)C(=O)OC35C (stereo not given)	68.4 µM (inactive)	> 100 µM (inactive)		> 100 µM (inactive)	> 100 µM (inactive)	> 100 µM (inactive)	> 100 µM (inactive)	> 100 µM (inactive)		> 100 µM (inactive)	> 100 µM (inactive)	> 100 µM (inactive)	> 100 µM (inactive)	83.4 µM (inactive)	> 100 µM (inactive)	> 100 µM (inactive)	> 100 µM (inactive)	> 100 µM (inactive)	> 100 µM (inactive)	
C[C@]12CC[C@H]3[C@@H](CC=C4C[C@@H](O)CC[C@@]43C)[C@@H]1C[C@H](N1CCOCC1)[C@@H]2O	> 100 µM (inactive)	48.5 µM (inactive)	89.3 µM (inactive)	> 100 µM (inactive)	> 100 µM (inactive)	> 100 µM (inactive)	> 100 µM (inactive)	49.2 µM (inactive)		> 100 µM (inactive)	> 100 µM (inactive)	> 100 µM (inactive)	> 100 µM (inactive)	> 100 µM (inactive)	> 100 µM (inactive)	> 100 µM (inactive)	28.4 µM (inactive)	> 100 µM (inactive)	> 100 µM (inactive)	52.4 µM (inactive)
Cc1cc(S(=O)(=O)NC2=Nc3cccc4cccc(c34)N2)c(S)cc1Cl	83.4 µM (inactive)	77.4 µM (inactive)		> 100 µM (inactive)	41.6 µM (inactive)	> 100 µM (inactive)	79.1 µM (inactive)	50 µM (inactive)	60 µM (inactive)		44.5 µM (inactive)	> 100 µM (inactive)	> 100 µM (inactive)	0.316 µM (active)		> 100 µM (inactive)	> 100 µM (inactive)	48.1 µM (inactive)	> 100 µM (inactive)	97.5 µM (inactive)
Brc1cccc(Nc2ncnc3sc4c(c23)CCC2(C4)OCCO2)c1	28.2 µM (inactive)		15.3 µM (inactive)	19.3 µM (inactive)		2.07 µM (inactive)	34.3 µM (inactive)	35.6 µM (inactive)		7.73 µM (inactive)		10.5 µM (inactive)	7.28 µM (inactive)	33.6 µM (inactive)	32.1 µM (inactive)	12.3 µM (inactive)	23.1 µM (inactive)	24 µM (inactive)	22.3 µM (inactive)	
COc1ccc(/N=C2\C(=N/c3ccc(OC)cc3)N(c3ccc(N(C)C)cc3)C(=S)N2c2ccc(OC)cc2)cc1	> 100 µM (inactive)	> 100 µM (inactive)	> 100 µM (inactive)	> 100 µM (inactive)	0.0329 µM (active)	3.81 µM (inactive)	> 100 µM (inactive)			> 100 µM (inactive)	> 100 µM (inactive)		> 100 µM (inactive)	> 100 µM (inactive)	> 100 µM (inactive)	> 100 µM (inactive)		> 100 µM (inactive)	> 100 µM (inactive)	0.0378 µM (active)
